According to article PMC6152131, “Pharmacokinetic Study of Biotransformation Products from an Anxiolytic Fraction of Tilia americana” (Molecules : A Journal of Synthetic Chemistry and Natural …, 2017):

Columns and labels:
[1] = Stability of flavonoids and biotransformation products in mouse plasma under different handling conditions; assay type: in vitro ADME, mice; conditions: for Accuracy Bias 0 h / Observed Conc. 0 h / Accuracy Bias 8 h / Observed Conc. 8 h / Accuracy Bias 24 h / Observed Conc. 24 h: room temperature (25 °C); for Observed Conc. 0 h / Observed Conc. 8 h / Observed Conc. 24 h / Observed Conc. Autosampler (4 °C; 8 h) / Observed Conc. Long-term (−70 °C; 1 month): n = 6; for Accuracy Bias Autosampler (4 °C; 8 h) / Accuracy Bias Long-term (−70°C; 1 month) / Observed Conc. Autosampler (4 °C; 8 h) / Observed Conc. Long-term (−70 °C; 1 month): storage stability
How it was run: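 Mouse plasma QC samples containing the flavonoids and their biotransformation products were tested for stability across storage and handling conditions, including long-term, autosampler and bench-top tests. Samples were extracted with methanol, filtered, and analyzed by HPLC on an RP-18e column with acetonitrile–water (55:45) at 1 mL/min and detection at λ = 220 nm. Results were compared against fresh QC samples; stability required deviation below 15%.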

[2] = Plasma concentration after a single oral dose of the anxiolytic fraction (HPLC); assay type: in vivo, ICR mice; conditions: mouse, plasma, ICR mice, n = 10
How it was run: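 Animals dosed orally with 200 mg/kg of active fraction; retro-orbital blood taken from separate groups of ten at 0–1440 min. Lyophilized plasma extracted in methanol and analysed by RP-18 HPLC with diode-array detection at 220 nm against a calibration curve; PK parameters from observed data, mean ± SD.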

[3] = Pharmacokinetic analysis, two-compartment model (PKSolver); assay type: in vivo, ICR mice
Protocol: The data shown in Table 2 were applied to the program PKSolver. After a single oral administration of 200 mg/kg of the anxiolitic fraction of T. americana, the behavior of the concentration-time data allowed us to determine the main pharmacokinetic parameters under a two-compartment model (Table 3), and the same program provided the graphical behavior of the variables and the adjustment to the two-compartment model.
To evaluate the suitability of the assay for the pharmacokinetic studies, 200 mg/kg of the active fraction was orally administered to the animals. Ten animals were used in each group at different times (0, 5, 10, 15, 30, 60, 120, 240, 480, 720, and 1440 min). Pharmacokinetic calculations were performed using the observed data. All data was subsequently processed using the PKSolver add-in program for Microsoft Excel written in Visual Basic for Applications. All values obtained were expressed in mean ± standard deviation.
For the pharmacokinetic assay, the selection was made either from a one-compartment or a two-compartment model, with the use of both the Akaike information criterion (AIC) and the Schwarz criterion (SC). Using these two criteria, one can select which model is more suited to being adjusted, to the point where it reaches the lowest values of the AIC or SC criteria, which means that the chosen model is more parsimonious (less parameters required) and best fits the data (low error prediction).

[4] = high nominal conc. (7.00; 44.37; 4.50; 31.25 µg/mL)
[5] = low nominal conc. (1.75; 11.02; 1.12; 1.95 µg/mL)
[6] = medium nominal conc. (3.50; 22.18; 2.24; 7.81 µg/mL)
[7] = mouse, oral 200 mg/kg anxiolytic fraction, ICR mice plasma, two-compartment model
[8] = oral 200 mg/kg anxiolytic fraction, ICR mice plasma, two-compartment model
[9] = oral 200 mg/kg anxiolytic fraction, ICR mice plasma, two-compartment model, n = 10

**Q.** With `O=C(O)Cc1cccc(O)c1` [m-HPAA, meta-hydroxyphenylacetic acid] as the compound, how does the “Accuracy Bias 0 h” value ([1]; high nominal conc.) read?
**A.** 1.88%

**Q.** And the “Observed Conc. 0 h” value ([1]; high nominal conc. (rutin 7.00; quercetin glucoside, quercitrin, tiliroside 44.37; kaempferol 4.50; m-HPAA, p-HPAA, DOPAC 31.25 µg/mL))?
**A.** 31.40 ± 0.10 µg/mL

**Q.** What about the “Accuracy Bias 0 h” value ([1]; low nominal conc.) of the same compound?
**A.** 0.47%

**Q.** And the “Observed Conc. 0 h” value ([1]; low nominal conc. (rutin 1.75; quercetin glucoside, quercitrin, tiliroside 11.02; kaempferol 1.12; m-HPAA, p-HPAA, DOPAC 1.95 µg/mL))?
**A.** 1.91 ± 0.2 µg/mL

**Q.** What about the “Accuracy Bias 0 h” value ([1]; medium nominal conc.) of the same compound?
**A.** 0.13%

**Q.** And the “Observed Conc. 0 h” value ([1]; medium nominal conc. (rutin 3.50; quercetin glucoside, quercitrin, tiliroside 22.18; kaempferol 2.24; m-HPAA, p-HPAA, DOPAC 7.81 µg/mL))?
**A.** 7.80 ± 0.01 µg/mL

**Q.** And the “Accuracy Bias 8 h” value ([1]; high nominal conc.)?
**A.** 0.90%

**Q.** What about the “Observed Conc. 8 h” value [1, 4] of the same compound?
**A.** 31.53 ± 0.19 µg/mL

**Q.** What about the “Accuracy Bias 8 h” value ([1]; low nominal conc.) of the same compound?
**A.** 2.23%

**Q.** And the “Observed Conc. 8 h” value [1, 5]?
**A.** 1.91 ± 0.03 µg/mL

**Q.** What about the “Accuracy Bias 8 h” value ([1]; medium nominal conc.) of the same compound?
**A.** 2.18%

**Q.** What about the “Observed Conc. 8 h” value [1, 6] of the same compound?
**A.** 7.98 ± 0.12 µg/mL

**Q.** And the “Accuracy Bias 24 h” value ([1]; high nominal conc.)?
**A.** 0.30%

**Q.** And the “Observed Conc. 24 h” value [1, 4]?
**A.** 31.34 ± 0.07 µg/mL

**Q.** What about the “Accuracy Bias 24 h” value ([1]; low nominal conc.) of the same compound?
**A.** 2.73%

**Q.** What about the “Observed Conc. 24 h” value [1, 5] of the same compound?
**A.** 1.90 ± 0.04 µg/mL

**Q.** What about the “Accuracy Bias 24 h” value ([1]; medium nominal conc.) of the same compound?
**A.** 0.09%

**Q.** What about the “Observed Conc. 24 h” value [1, 6] of the same compound?
**A.** 7.82 ± 0.01 µg/mL

**Q.** What about the “Accuracy Bias Autosampler (4 °C; 8 h)” value ([1]; high nominal conc.) of the same compound?
**A.** 2.73%

**Q.** What about the “Accuracy Bias Long-term (−70°C; 1 month)” value ([1]; high nominal conc.) of the same compound?
**A.** 2.23%

**Q.** What about the “Observed Conc. Autosampler (4 °C; 8 h)” value [1, 4] of the same compound?
**A.** 31.34 ± 0.07 µg/mL

**Q.** And the “Observed Conc. Long-term (−70 °C; 1 month)” value (“Observed Conc. Long-term” for short) [1, 4]?
**A.** 31.20 ± 0.19 µg/mL

**Q.** And the “Accuracy Bias Autosampler (4 °C; 8 h)” value ([1]; low nominal conc.)?
**A.** 0.09%

**Q.** What about the “Accuracy Bias Long-term (−70°C; 1 month)” value ([1]; low nominal conc.) of the same compound?
**A.** 0.90%

**Q.** And the “Observed Conc. Autosampler (4 °C; 8 h)” value [1, 5]?
**A.** 1.93 ± 0.04 µg/mL

**Q.** What about the “Observed Conc. Long-term” value [1, 5] of the same compound?
**A.** 1.92 ± 0.03 µg/mL

**Q.** What about the “Accuracy Bias Autosampler (4 °C; 8 h)” value ([1]; medium nominal conc.) of the same compound?
**A.** 0.30%

**Q.** And the “Accuracy Bias Long-term (−70°C; 1 month)” value ([1]; medium nominal conc.)?
**A.** 2.18%

**Q.** And the “Observed Conc. Autosampler (4 °C; 8 h)” value [1, 6]?
**A.** 7.82 ± 0.01 µg/mL

**Q.** What about the “Observed Conc. Long-term” value [1, 6] of the same compound?
**A.** 7.80 ± 0.12 µg/mL

**Q.** And the concentration at 5 min ([2]; 5 min after single oral dose of 200 mg/kg of the anxiolytic fraction, ND = not detected)?
**A.** 4670 ± 270 ng/mL

**Q.** What about the concentration at 10 min ([2]; 10 min after single oral dose of 200 mg/kg of the anxiolytic fraction) of the same compound?
**A.** 5060 ± 220 ng/mL

**Q.** And the concentration at 15 min ([2]; 15 min after single oral dose of 200 mg/kg of the anxiolytic fraction)?
**A.** 4750 ± 290 ng/mL

**Q.** What about the concentration at 30 min ([2]; 30 min after single oral dose of 200 mg/kg of the anxiolytic fraction) of the same compound?
**A.** 4520 ± 280 ng/mL

**Q.** And the concentration at 60 min ([2]; 60 min after single oral dose of 200 mg/kg of the anxiolytic fraction)?
**A.** 4290 ± 130 ng/mL

**Q.** What about the concentration at 120 min ([2]; 120 min after single oral dose of 200 mg/kg of the anxiolytic fraction) of the same compound?
**A.** 4170 ± 330 ng/mL

**Q.** What about the concentration at 240 min ([2]; 240 min after single oral dose of 200 mg/kg of the anxiolytic fraction) of the same compound?
**A.** 4110 ± 230 ng/mL

**Q.** And the concentration at 480 min ([2]; 480 min after single oral dose of 200 mg/kg of the anxiolytic fraction)?
**A.** 4040 ± 250 ng/mL

**Q.** And the concentration at 720 min ([2]; 720 min after single oral dose of 200 mg/kg of the anxiolytic fraction)?
**A.** 3940 ± 190 ng/mL

**Q.** And the concentration at 1440 min ([2]; 1440 min after single oral dose of 200 mg/kg of the anxiolytic fraction)?
**A.** 3790 ± 280 ng/mL

**Q.** What about the “ka smaller than the ka of DOPAC” value ([3]; mouse, in vivo) of the same compound?
**A.** 79%

**Q.** And the AUC(0-inf) [3, 7]?
**A.** 124000 ng·h/mL

**Q.** What about the Cmax [3, 7] of the same compound?
**A.** 5760 ng/mL

**Q.** And the Tmax [3, 7]?
**A.** 0.235 h

**Q.** And the AUC(0-t) ([3]; mouse, oral 200 mg/kg anxiolytic fraction, ICR mice plasma, two-compartment model, read-out: AUC0→1440 (converted))?
**A.** 61400 ng·h/mL

**Q.** What about the MRT ([3]; mouse, oral 200 mg/kg anxiolytic fraction, ICR mice plasma, two-compartment model, read-out: MRT (mean residence time) (converted)) of the same compound?
**A.** 35.4 h

**Q.** And the k el ([3]; mouse, oral 200 mg/kg anxiolytic fraction, ICR mice plasma, two-compartment model, read-out: k10 (apparent first-order elimination rate constant from the central compartment) (converted))?
**A.** 1.5e-05 s⁻¹

**Q.** And the half-life ([3]; mouse, oral 200 mg/kg anxiolytic fraction, ICR mice plasma, two-compartment model, read-out: t1/2β)?
**A.** 25 h

**Q.** And the “CL/F (apparent clearance)” value [3, 8]?
**A.** 0.026 (mg/Kg)/(μg/mL)/min

**Q.** What about the “V/F (apparent volume of distribution)” value [3, 8] of the same compound?
**A.** 30.45 (mg/Kg)/(µg/mL)

**Q.** And the “k12 (transfer rate constant central to peripheral compartment)” value [3, 8]?
**A.** 0.009 min⁻¹

**Q.** What about the “k21 (transfer rate constant peripheral to central compartment)” value [3, 8] of the same compound?
**A.** 0.01 min⁻¹

**Q.** And the ka (apparent first-order absorption rate constant) [3, 8]?
**A.** 0.24 min⁻¹

**Q.** What about the “t1/2ka (absorption half time)” value [3, 8] of the same compound?
**A.** 2.84 min

**Q.** And the t1/2α [3, 8]?
**A.** 0.5847 h

**Q.** What about the α [3, 8] of the same compound?
**A.** 0.02 min⁻¹

**Q.** What about the β [3, 8] of the same compound?
**A.** 0.0005 min⁻¹

**Q.** And the “A (plasma concentration coefficient, central compartment)” value [3, 9]?
**A.** 3.49 µg/mL

**Q.** What about the “B (plasma concentration coefficient, peripheral compartment)” value [3, 9] of the same compound?
**A.** 3.36 µg/mL

**Q.** And the “index: relation between rate constants of k12 with respect to k21” value ([3]; two-compartment model)?
**A.** 0.9
